Source: patent publication US7112590B2, “Thrombin inhibitors” (LEK Pharmaceuticals d.d., priority 2000, dated 2006)

How the values were obtained:
Assay type in all cases: biochemical
[1] = biological target: T1, human thrombin (Homo sapiens, UniProt P00734); experiment: Determination of thrombin Ki (chromogenic substrate S-2238); settings: for Ki: human thrombin, substrate S-2238, pH 7.5, 25° C.; for Ki trypsin/ Ki thrombin: selectivity: ratio of Ki for trypsin to Ki for thrombin
T1 construct: Human thrombin (308 NIH; Sigma); purchased Sigma
Procedure: (§1) The enzyme inhibitory effect of the compounds can be identified by determination of inhibition constant Ki. It denotes the degree of dissociation of the enzyme-inhibitor complex. Low dissociation constant means high potency of inhibitor. Ki can be determined during reaction of the enzyme with a specific chromogenic substrate which under hydrolysis by the enzyme develops color. Reaction in time is recorded by spectrophotometry and Ki is calculated from kinetic parameters (Vmax, Km, reaction rate).
1. Determination of Thrombin Ki
The ability of a compound to act as an inhibitor of human thrombin catalytic activity was assessed by determination of Ki.
(§2) Buffer: HBSA, pH 7.5 (10 mM Hepes, 150 mM NaCl, 0.1% w/v bovine serum albumin)
Substrate (S-2238: H-D-Phe-Pip-Arg-pNA HCl, 25 mg; Chromogenix): dissolved in distilled water to 1 mM concentration.
Human thrombin (308 NIH; Sigma): dissolved in saline to give a stock solution of 20 NIH/mL.
Inhibitors: were dissolved in DMSO (10 mM stock solution) and diluted with distilled water to working solutions (the highest final concentration of DMSO was 3%).
A mixture of 50 μL of buffer, 50 μL of inhibitor in water (final concentrations from 10 to 100 μM) and 50 μL of thrombin (0.5 NIH U/mL f.c.) was incubated for 15 minutes at room temperature. The reaction was started with 50 μL of S-2238 (20 μM or 40 μM f.c.) and the absorbance of each sample at 405 nm (at 25° C.) was measured in triplicate every 10 seconds for a period of 15 minutes using a microtiter plate reader (Tecan Sunrise).
(§3) Thrombin activity was determined from the change in absorbance in the linear part of the velocity graph. Ki was calculated according to Cheng and Prussof (Biochem Pharmacol, 1973) where Ki is IC50/(1+S/Km). The Km for the substrate was determined under the test conditions with at least 6 substrate concentrations varying around Km and calculated with the non-linear regression programme Curve expert.
3. Selectivity to Thrombin
By the use of other serine protease like trypsin with the appropriate chromogenic substrate, selectivity of inhibitors with respect to thrombin was determined. Selectivity of an inhibitor is expressed as a ratio of Ki for trypsin to Ki for thrombin.

[2] = biological target: T2, trypsin (UniProt P00760); experiment: Determination of trypsin Ki (chromogenic substrate S-2222); settings: substrate S-2222, pH 7.5, 25° C.
T2 construct: Trypsin (6000 E/mg prot; Sigma): dissolved in distilled water to give a stock solution of 300 E/mL
T2 sequence (P00760 1-246): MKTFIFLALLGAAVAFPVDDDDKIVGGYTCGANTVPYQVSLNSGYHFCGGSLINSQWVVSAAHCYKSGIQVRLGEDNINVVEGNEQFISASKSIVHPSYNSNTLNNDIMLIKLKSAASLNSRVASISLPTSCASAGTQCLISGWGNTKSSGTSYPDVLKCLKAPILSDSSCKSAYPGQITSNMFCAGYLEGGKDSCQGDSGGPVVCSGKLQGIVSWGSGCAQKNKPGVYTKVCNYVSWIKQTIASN
Procedure: as §1
2. Determination of Trypsin Ki
The ability of a compound to act as an inhibitor of trypsin catalytic activity was assessed by determination of Ki.
as §2
Substrate (S-2222: N-benzoyl-Ile-Glu-Gly-Arg-pNA HCl, 25 mg; Chromogenix): dissolved in distilled water to 2 mM concentration. (Km is 21 μM)
Trypsin (6000 E/mg prot.; Sigma): dissolved in distilled water to give a stock solution of 300 E/mL.
Inhibitors: were dissolved in DMSO (10 mM stock solution) and diluted with distilled water to working solution (the highest final concentration of DMSO was 10%).
50 μL of buffer, 50 μL of test compound in water (final concentrations from 50 to 300 μM) and 50 μL of trypsin (3 mE/mL f.c.) were incubated for 15 minutes at room temperature. The reaction was started with 50 μL of S-2222 (50 μM or 100 μM f.c.) and the absorbance of each sample at 405 nm (at 25° C.) was measured in triplicates every 10 seconds for a period of 15 minutes using a microtiter plate reader (Tecan Sunrise).
as §3, with “Trypsin” for “Thrombin”, “of” for “of the”, “is,” for “is”, “under” for “under the”, “program” for “programme”

[3] = tested on: normal pooled human plasma; experiment: Activated partial thromboplastin time (aPTT) coagulation assay; settings: concentration of inhibitor that doubled the clotting time
Procedure: (§4) The Anticoagulant effect of thrombin inhibitors was measured by thrombin time (TT), activated partial thromboplastin time (aPTT), and prothrombin time (PT) assays. Inhibitors were added to normal pooled human plasma over a range of concentrations and clotting was recorded in an automated coagulometer (Fibrintimer, Dade/Behring). The concentration of inhibitor that doubled the clotting time was determined for each assay.
2. Activated Partial Thromboplastin Time (aPTT)
Incubation of plasma with the optimal quantity of phospholipids and a surface activator leads to activation of factors of the intrinsic coagulation pathway. The addition of calcium ions triggers the coagulation process. The time of fibrin clot formation wass measured. aPTT was used as a screening test for coagulation disorders of the intrinsic coagulation pathway. It is prolonged due to intrinsic coagulation factors deficit or due to the presence of inhibitors.
Pathromtin SL (Dade/Behring): silicon dioxide particles, vegetable phospholipids, sodium chloride (2.4 g/L), Hepes (14.3 g/L, pH 7.6), sodium azide (<1 g/L). The reagent was used at room temperature (15–25° C.).
Calcium chloride solution: 0.025 mol/L, warmed to 37° C.
(§5) Normal pooled plasma: venous blood from 11 apparently healthy volunteers was collected (1 part 0.11 mol/L sodium citrate solution with 9 parts of blood) and centrifuged immediately at 2000×g for 30 minutes at 4° C. Plasma was removed, pooled and stored in aliquots at −70° C. until use.
(§6) Inhibitors: were dissolved in DMSO (10 mM stock solution) and diluted with distilled water to working solutions (the highest concentration 100 μM).
Inhibitor (10 μL working solution, concentrations from 5 μM to 100 μM) and pooled plasma (90 μL) were incubated at 37° C. for 5 minutes. Pathromtin (100 μL) was added and the sample was incubated for another 2 minutes at 37° C. The addition of calcium chloride (100 μL) triggered the coagulation process and clot formation was detected with a coagulometer in duplicate.

[4] = tested on: normal pooled human plasma; experiment: Prothrombin time (PT) coagulation assay; settings: concentration of inhibitor that doubled the clotting time
Procedure: as §4
An optimal amount of thromboplastin and calcium are added to plasma sample and the time of fibrin clot formation wass measured. PT is a rapid, sensitive screening test for coagulation disorders of the extrinsic pathway. It is well suited for the induction and monitoring of oral anticoagulant therapy, for diagnosing genetic or acquired deficiencies in coagulation factors and checking the synthesis performance of the liver in hepatic diseases. PT is prolonged due to extrinsic coagulation factors deficit or due to the presence of inhibitors.
Thromboplastin (Thromborel S, Dade/Behring): was dissolved in 4 mL of distilled water. Reagent was at 37° C. prior to use at least 30 minutes.
as §5, §6
Inhibitor (10 μL working solution, concentrations from 5 μM to 100 μM) and pooled plasma (90 μL) were incubated at 37° C. for 5 minutes and then Thromborel S (200 μL) was added. Clot formation was measured with a coagulometer in duplicate.

[5] = tested on: normal pooled human plasma; experiment: Thrombin time (TT) coagulation assay; settings: concentration of inhibitor that doubled the clotting time, bovine thrombin reagent
Procedure: as §4
In a plasma sample thrombin converts fibrinogen into fibrin and the clot is formed. The time for clot formation was measured. Thrombin time is prolonged due to disorders in fibrin polymerisation or due to the presence of thrombin inhibitors.
Thrombin (Test Thrombin Reagent, 1.5 IU/mL, Dade/Behring): lyophilized bovine thrombin was dissolved in 5 mL of HEPES (25 mmol/L, pH 7.4). The reagent was warmed to 37° C. prior to the assay.
as §5, §6
Inhibitors (10 μL working solution, concentrations from 2.5 μM to 100 μM) and pooled plasma (90 μL) were incubated at 37° C. for 5 minutes and then thrombin (200 μL) was added. Clot formation was measured in a coagulometer in duplicate.

Ki [1] [nM] | Ki trypsin/ Ki thrombin [1] | Ki [2] [µM] | Compound | aPTT [3] [µM] | PT [4] [µM] | TT [5] [µM]
370 | 107.8 | 39.9 | Nc1nc2c(s1)CC(CNC(=O)[C@@H]1CCCN1C(=O)[C@@H](CC1CCCCC1)NS(=O)(=O)Cc1ccccc1)CC2 (stereo partly drawn) [drawing 95] | 64 | 95.3 | 15.8
140 | 1267 | 177 | O=C(NCC1CCc2n[nH]cc2C1)[C@@H]1CCCN1C(=O)[C@@H](CC1CCCCC1)NS(=O)(=O)Cc1ccccc1 (stereo partly drawn) [drawing 92] | 42.3 | 78.3 | 11

The remaining lines, values behind:

Compound | Ki [1] [nM] | Ki trypsin/ Ki thrombin [1] | Ki [2] [µM] | aPTT [3] [µM] | PT [4] [µM] | TT [5] [µM]
O=C(O)CN[C@H](CC1CCCCC1)C(=O)N1CCC[C@H]1C(=O)NCC1CCc2n[nH]cc2C1 (stereo partly drawn) | 280 | 70.6 | 19.9 | 28 | 55.3 | 4.9
Nc1nc2c(s1)CC(NC(=O)[C@@H]1CCCN1C(=O)[C@@H](Cc1ccccc1)NS(=O)(=O)Cc1ccccc1)CC2 (stereo partly drawn) [drawing 96] | 620 | >110 | > 68.3 | 332 | 578 | 84
Nc1nc2c(s1)CC(NC(=O)[C@@H]1CCCN1C(=O)[C@@H](CC1CCCCC1)NS(=O)(=O)Cc1ccccc1)CC2 (stereo partly drawn) [drawing 91] | 120 | >569 | > 68.3 | 59 | 114 | 15
